We go through 20 compounds from PubChem BioAssay (NCI).

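Cultured in 96-well plates, cells were exposed to test compound for 48 hours across five concentrations. GI50: concentration for 50% inhibition of growth. TGI: total growth inhibition.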

The first assay deals with SK-OV-3 ovarian. Nature of the assay: NCI anticancer screen, dose series, 48 h.
With `CCCC(C)c1cc(Cc2cc(Cl)cc(Cl)c2O)c(O)c(Cc2cc(Cl)cc(Cl)c2O)c1` (stereo unspecified), the GI50 is 3.36 µM and the TGI worked out at 9.23 µM.

Regarding `C/C(=N\NS(=O)(=O)c1ccccc1)c1ccc(Cl)c(Cl)c1`, the TGI was greater than 100 µM.

For the compound `COc1ccc(/C=C2\CCCC3=C2N=C2SC(C)=NN2C3c2ccc(OC)c(OC)c2)cc1OC` (stereo unspecified), the GI50 is 62.5 µM and the TGI was greater than 100 µM.

With `COc1ccc(-c2nn3c(-c4cc(F)c(Cl)cc4Cl)nnc3s2)cc1`, the GI50 is 21.4 µM and the TGI is greater than 100 µM.

With `O=C(NCCO)Nc1ccc(-c2nc(N3CCOCC3)c3cccn3n2)cc1`, the GI50 was 0.0602 µM and the TGI is 0.291 µM.

`Cc1ccc(-c2cn3ccnc3c(-c3ccc(Cl)cc3)n2)cc1`: the GI50 was 0.714 µM and the TGI was greater than 94 µM.

For `CC1(C)C(=NNC(=O)C[N+](C)(C)C)C(C)(C)C1=NNC(=O)C[N+](C)(C)C`, the TGI was greater than 100 µM.

In turn, `Nn1c(NNC(=O)C(=O)Nc2cc(Cl)c(Cl)cc2Cl)n[nH]c1=S` came in with a TGI greater than 100 µM.

Turning to `NC1C[C@H](n2cc(/C=C/Br)c(=O)[nH]c2=O)C[C@@H]1CO` (stereo partly specified), the TGI was greater than 100 µM.

Take `CC1=C(C)C(=O)c2c(cc3ccccn23)C1=O`: the TGI was 63.6 µM.

Compound `Cc1ccc(N=Cc2ccc3c(c2)OCO3)cc1C` yielded a TGI greater than 100 µM.

As to `COC(C(=O)[O][Ge]([CH3])([CH3])[CH3])c1ccccc1` (stereo unspecified), the GI50 was greater than 100 µM and the TGI is greater than 100 µM.

`O=C1/C(=C\c2c[nH]c3ccccc23)c2ccccc2N1c1c(Cl)cccc1Cl`: the GI50 is 2.13 µM and the TGI was 5.27 µM.

Regarding `OC(c1cc(-c2ccccc2)nc2ccc(Cl)cc12)C1CCCCN1` (stereo unspecified), the GI50 is 3.85 µM and the TGI is 14.4 µM.

In turn, `CCN(CC)c1ccc(C(=O)c2ccccc2C(=O)O)c(O)c1` came in with a TGI greater than 100 µM.

Regarding `COc1ccc(OC)c(NC(=O)C2=C(C)NC(C)=C(C(=O)Nc3cc(OC)ccc3OC)C2c2ccccc2)c1`, the TGI was greater than 100 µM.

The next assay relates to SF-295 CNS. Nature of the assay: NCI anticancer screen, dose series, 48 h.
For `CCCC(C)c1cc(Cc2cc(Cl)cc(Cl)c2O)c(O)c(Cc2cc(Cl)cc(Cl)c2O)c1` (stereo unspecified), the GI50 is 1.17 µM and the TGI amounted to 3.56 µM.

`C/C(=N\NS(=O)(=O)c1ccccc1)c1ccc(Cl)c(Cl)c1`: the TGI was greater than 100 µM.

Regarding `COc1ccc(/C=C2\CCCC3=C2N=C2SC(C)=NN2C3c2ccc(OC)c(OC)c2)cc1OC` (stereo unspecified), the GI50 was 14.8 µM and the TGI was greater than 100 µM.

Regarding `COc1ccc(-c2nn3c(-c4cc(F)c(Cl)cc4Cl)nnc3s2)cc1`, the GI50 is 16.2 µM and the TGI was 65.3 µM.

The compound `CCCNC1=C(C(=O)OCC)C(=O)CO1` displayed a TGI greater than 100 µM.

Consider `O=C(NCCO)Nc1ccc(-c2nc(N3CCOCC3)c3cccn3n2)cc1`, for which the GI50 is 0.117 µM and the TGI stood at 2.13 µM.

On to `Cc1ccc(-c2cn3ccnc3c(-c3ccc(Cl)cc3)n2)cc1`, for which the GI50 is 0.0268 µM and the TGI was 2.33 µM.

`CC1(C)C(=NNC(=O)C[N+](C)(C)C)C(C)(C)C1=NNC(=O)C[N+](C)(C)C`: the TGI was greater than 100 µM.

Compound `Nn1c(NNC(=O)C(=O)Nc2cc(Cl)c(Cl)cc2Cl)n[nH]c1=S` came in with a TGI greater than 100 µM.

In the case of `COc1ccc2sc3c(NCCCN(C)C)nc4ccccc4c3c(=O)c2c1`, the GI50 is 1.82 µM and the TGI was determined as 3.27 µM.

`NC1C[C@H](n2cc(/C=C/Br)c(=O)[nH]c2=O)C[C@@H]1CO` (stereo partly specified): the TGI was greater than 100 µM.

`O=c1/c(=C/c2ccccc2F)sc2nc3ccccc3n12` returned a TGI greater than 100 µM.

`CC1=C(C)C(=O)c2c(cc3ccccn23)C1=O`: the TGI came to 31.8 µM.

`Cc1ccc(N=Cc2ccc3c(c2)OCO3)cc1C` came in with a TGI greater than 100 µM.

For the compound `COC(C(=O)[O][Ge]([CH3])([CH3])[CH3])c1ccccc1` (stereo unspecified), the GI50 was greater than 100 µM and the TGI is greater than 100 µM.

Regarding `O=C1/C(=C\c2c[nH]c3ccccc23)c2ccccc2N1c1c(Cl)cccc1Cl`, the GI50 is 1.75 µM and the TGI worked out at 3.51 µM.

For the compound `OC(c1cc(-c2ccccc2)nc2ccc(Cl)cc12)C1CCCCN1` (stereo unspecified), the GI50 was 1.9 µM and the TGI was found to be 3.55 µM.

`CCN(CC)c1ccc(C(=O)c2ccccc2C(=O)O)c(O)c1` registered a TGI greater than 100 µM.

`COc1ccc(OC)c(NC(=O)C2=C(C)NC(C)=C(C(=O)Nc3cc(OC)ccc3OC)C2c2ccccc2)c1` had a TGI greater than 100 µM.

Compound `Nc1ccn(CCNCCn2cnc3nc(N)[nH]c(=O)c32)c(=O)n1` came in with a TGI greater than 100 µM.

The test system of a further assay is SF-539 CNS. The assay is described as follows: NCI anticancer screen, dose series, 48 h.
With `CCCC(C)c1cc(Cc2cc(Cl)cc(Cl)c2O)c(O)c(Cc2cc(Cl)cc(Cl)c2O)c1` (stereo unspecified), the GI50 was 1.09 µM and the TGI worked out at 7.28 µM.

As for `C/C(=N\NS(=O)(=O)c1ccccc1)c1ccc(Cl)c(Cl)c1`, the TGI was greater than 100 µM.

Regarding `COc1ccc(/C=C2\CCCC3=C2N=C2SC(C)=NN2C3c2ccc(OC)c(OC)c2)cc1OC` (stereo unspecified), the GI50 is 8.15 µM and the TGI was greater than 100 µM.

For `COc1ccc(-c2nn3c(-c4cc(F)c(Cl)cc4Cl)nnc3s2)cc1`, the GI50 is 20.8 µM and the TGI came out at 44.4 µM.

In the case of `CCCNC1=C(C(=O)OCC)C(=O)CO1`, the TGI was greater than 100 µM.

As to `O=C(NCCO)Nc1ccc(-c2nc(N3CCOCC3)c3cccn3n2)cc1`, the GI50 was 0.315 µM and the TGI was 5.72 µM.

On to `Cc1ccc(-c2cn3ccnc3c(-c3ccc(Cl)cc3)n2)cc1`, for which the GI50 is 0.0422 µM and the TGI came to 1.35 µM.

With `CC1(C)C(=NNC(=O)C[N+](C)(C)C)C(C)(C)C1=NNC(=O)C[N+](C)(C)C`, the TGI was greater than 100 µM.

Regarding `Nn1c(NNC(=O)C(=O)Nc2cc(Cl)c(Cl)cc2Cl)n[nH]c1=S`, the TGI was greater than 100 µM.

Take `COc1ccc2sc3c(NCCCN(C)C)nc4ccccc4c3c(=O)c2c1`: the GI50 is 1.63 µM and the TGI turned out to be 3.06 µM.

Turning to `NC1C[C@H](n2cc(/C=C/Br)c(=O)[nH]c2=O)C[C@@H]1CO` (stereo partly specified), the TGI was greater than 100 µM.

Take `O=c1/c(=C/c2ccccc2F)sc2nc3ccccc3n12`: the TGI was greater than 100 µM.
